| melting point [°C] | SMILES |
| --- | --- |
| 83 to 85 | Clc1cccc(Oc2nccnc2Cl)c1 |
| 106 to 107 | COC(=O)c1ccnc(-c2cccc3cc(Cc4cccc(C(F)(F)F)c4)sc23)c1 |
| 176 to 177 | COC(=O)CN1CCN(c2cccc(-c3nc4cc(OC)cc(OC)c4c(=O)[nH]3)n2)CC1 |
| 178 to 180 | Cc1nc(SCc2ccncc2C(=O)O)sc1CC(=O)O |
| 284 to 285 | COc1ccc(-c2cnc3[nH]cc(C#N)c3n2)cc1OC |
| 126 to 128 | CCOC(=O)/C=C\C(=O)Oc1cccc(-c2cn3c(n2)sc2ccccc23)c1 |
| 96 to 97 | C[C@](O)(CNC(=O)c1cnc(OCC(F)(F)F)c(-c2ccc(Cl)cc2)n1)C1CC1 |
| 243 to 244 | CCOC(=O)N[C@H](C(=O)NN(Cc1ccc(-c2cncs2)cc1)C[C@H](O)[C@H](Cc1ccccc1)NC(=O)[C@@H](NC(=O)OC)C(C)C)C(C)C |
| 115 to 116 | COc1ccc(CCc2ccc(N)cc2)cc1OC |
| 242 to 243 | CCCCc1ccc(C(=O)NCc2c[nH]c(=S)n2[C@H]2CCc3c(F)cc(F)cc3C2)cc1 |
| 180 to 182 | COc1cc(OC)c2c(=O)[nH]c(-c3cc(C)c(OCCN4CCN(C)CC4)c(C)c3)nc2c1 |
| 70 to 72 | Clc1ccc(-c2cc(C3CC3)nc(Cl)n2)cc1 |
| 100 to 112 | COCCN1CCc2cc(Nc3ncc(Cl)c(Nc4ccc(C(N)=O)cc4OC)n3)c(OC)cc2CC1 |
| 135 to 137 | CCCOc1ccc(Br)cc1CN(CC)c1ccc(C(=O)O)nn1 |
| 88 | COC(=O)CCCc1cc2nc(C(F)(F)F)ccc2n1S(=O)(=O)c1ccccc1Cl |
| 167 to 168 | Cc1nnc(-c2ccc3occ(-c4ccc(C(=O)N5CCOCC5)c(F)c4)c3c2)o1 |
| 107 to 108 | O=C(O)CC(CCCc1ccc(O)cc1)CC(=O)O |
| 110 to 111 | CC(C)(c1ccc(OCCO)cc1)c1ccc(OCCO)cc1 |
| 180 | CCOC(=O)c1cc2c(F)cccc2[nH]c1=O |
| 281 to 283 | CC(=O)NNc1nc(C(F)(F)F)nc(-c2ccc(S(C)(=O)=O)cc2)c1-c1ccccc1F |
| > 300 | CCCn1cc2c(C3C(=O)Nc4ccc(C#N)cc43)nc(NCCc3ccccn3)nc2n1 (stereo not given) |
| 97 to 99 | c1ccc(Sc2ccc3[nH]ccc3c2)cc1 |
| 112 | CCN(C(=O)NC)c1nnc(C(C)(C)C)s1 |
| 33 to 36 | CC(CCBr)Oc1ccccc1 (stereo not given) |

| melting point [°C] | SMILES |
| --- | --- |
| 229 to 230 | Cc1c[nH]c2c(Sc3nc4cc(Cl)ccc4[nH]3)ccc(N)c12 |
| 151 to 152 | CCOC(=O)C(Cc1cnc2ccc(OC)cc2c1)(NC(C)=O)C(=O)OCC |
| 194 to 195 | O=C(NCCO)c1nc2ccccc2[nH]1 |
| 65 to 67 | O=C1CCC2(CC1)CCC(O)CC2 |
| 130 to 132 | CCNC(=O)CC1CN=C(c2cc3cc(Oc4ccc(COC)nc4)cc(OC)c3[nH]2)S1 (stereo not given) |
| 172 | CC(C)OC(=O)CCC1CCCCC1(c1ccc(O)c(C(C)(C)C)c1)c1ccc(O)c(C(C)(C)C)c1 (stereo not given) |
| 222 to 224 | N#Cc1cnc(NS(=O)(=O)c2cccc(Cl)c2Cl)c(OCc2cccnc2)n1 |
| 169 | CCCCCCCCCCCC(=O)N[C@@H](C)C(=O)N[C@H](CCC(=O)OCc1ccccc1)C(N)=O |
| 165 to 166 | Cn1nc(C(F)(F)F)c(C(=O)O)c1F |
| 46 to 47 | CC#CCOc1cc(C=O)ccc1OC(F)F |
| > 275 | O=S(=O)(O)c1cccc(NCc2cccc(C(F)(F)F)c2)c1 |
| 118 to 120 | COC(=O)C(C)(C)OCc1cc2cc(C(F)(F)F)ccc2n1S(=O)(=O)c1cccc2nc(C)sc12 |
| 150 to 152 | CN(C)C(=O)N[C@H]1CC[C@H](CCN2CCN(c3cccc4c3CCC4)CC2)CC1 |
| 80 to 81 | CC(C)CNC(=O)C=CC=CCCCCCCCOc1cccc(Cl)n1 |
| 111 to 124 | CN(C)N=C(c1ccccc1)c1cc(C(C)(C)C)c(O)c(C(C)(C)C)c1 |
| 154 to 155 | COc1ccn2nc(-c3ccccc3)c(-c3ccc(=O)n(C4CCN(C)CC4)n3)c2c1 |
| 185 to 188 | C=C1CSC2C(NC(=O)COc3ccccc3)C(=O)N2C1C(=O)O (stereo not given) |
| 173 to 175 | Cc1onc(C(=O)c2ccc(Cl)cc2)c1[N+](=O)[O-] |
| 193 to 194 | CNC(=O)Cn1c(Cl)ccc1Cl |
| 130 to 133 | CSC(Nc1cc(C(F)(F)F)cc(C(F)(F)F)c1)=C(C#N)S(=O)(=O)C(C)C |
| 205 to 206 | NNc1nnc(C=Cc2ccc([N+](=O)[O-])o2)s1 |
| 160 to 161 | CCOC(=O)c1ccc(N(CCOc2ccc(C(C)=O)c3ccccc23)C(=O)C(F)(F)F)cc1 |
| 154 to 156 | O=C(NNS(=O)(=O)c1ccccc1)c1ccccc1Br |
| 134 | COc1cc(N)c(Cl)cc1C(=O)N[C@H]1CCN(CCNc2ncccc2C#N)C[C@H]1OC (relative stereo) |

| melting point [°C] | SMILES |
| --- | --- |
| 167 | COC(C)=CC(=O)Nc1cccc(NC(C)=O)c1 |
| 178 to 179 | COC(=O)NC1CCc2sc(Cl)c(C(=O)CCC(=O)O)c2C1 (stereo not given) |
| 114 to 115 | C=CCc1cc2c(c(CC=C)c1O)NC(=O)CO2 |
| 84 to 88 | CCCCc1ncc(CC(=O)NCC(=O)O)n1Cc1ccccc1Cl |
| 64 to 66 | CCN(c1nc(C)cc(C)n1)c1ccc(C(C)C)cc1SC |
| 56 to 58 | Nc1ccc(OCCCCCC(=O)OCCOCCOC(=O)CCCCCOc2ccc(N)cc2)cc1 |
| 145 to 146 | CC(CCl)CCCC(C)C1CC=C2C3=C(CCC21C)C1(C)CCC(O)C(C)(C)C1CC3 (stereo not given) |
| 80 to 83 | Cc1cn(S(C)(=O)=O)c2c1C(=O)CC(c1ccccc1)C2 (stereo not given) |
| 145 to 147 | COc1cc(Nc2c(C#N)cnc3ccc(-c4csc(CN5CCOCC5)c4)cc23)c(Cl)cc1Cl |
| 146 | COc1c(C)cc(-c2cncc(OC3SCC(OC(C)=O)C(OC(C)=O)C3OC(C)=O)c2)cc1C (stereo not given) |
| 184 to 185 | COC(=O)c1cc(C(=O)N2CCSCC2)c2cc(Cc3ccc(F)cc3)cnc2c1O |
| 182 to 184 | CCNC(=O)c1c(C2CC2)nc(CC)n1Cc1ccc2oc(-c3ccccc3C(=O)O)c(Br)c2c1 |
| 166 to 168 | CCCCC(Cc1ccc(OCCNC(=O)c2ccc(-c3ccc(OC)cc3)cc2)cc1)C(=O)O (stereo not given) |
| 42 to 43 | C=CCC12CC(c3ccccc31)c1ccccc12 |
| 133 | CCOC(=O)N1CCC(NC(=S)Nc2cccnc2NCc2ccco2)CC1 |
| 230 to 234 | CCOC(=O)C(=O)c1csc(NC(=O)Nc2ccc(Cl)cc2)n1 |
| 253 to 255 | Nc1nc(N)nc(-c2ccc(S(=O)c3ccccc3)cc2)n1 (stereo not given) |
| 124 to 126 | COc1cc(C(=O)CBr)cc(OC)c1OC(C)=O |
| 191 to 192 | CC(C)OC(=O)c1cc(N)c(F)c(Cl)n1 |
| 180 to 182 | O=c1c(-c2ccccc2)cc([N+](=O)[O-])c2n1CCc1ccsc1-2 |
| 55 to 57 | CCc1ccc(NN)c(Cl)c1 |
| 175 | Nc1nc(Cl)cc(Oc2ccc3c(c2)CCCCN3C(=O)Nc2cccc(C(F)(F)F)c2)n1 |
| 135 to 136 | Cc1cc(NC(=O)CC(C)(C)C)c(C)c2c1OCC2c1ccc(C(C)C)cc1 (stereo not given) |
| 191 to 193 | Nc1nnc(N2CCN(Cc3ccncc3)CC2)[nH]1 |

| melting point [°C] | SMILES |
| --- | --- |
| 166 to 167 | Cc1c(-c2ccccc2)oc(=O)c(Sc2ccccc2)c1O |
| 137 | N=C(NO)c1cc(Oc2ccc(Cl)cc2Cl)c(O)cc1Cl |
| 53.4 | CC(C)(C)OC(=O)c1ccc(CBr)cc1 |
| 189 to 190 | Cc1cc(C)c2ncc(NC(=O)Cc3cc(C(C)(C)C)c(O)c(C(C)(C)C)c3)c(-c3ccccc3Cl)c2c1 |
| 170 to 171 | COc1ccc(N2CCN(c3c(C)c(C)c4c(c3C)C(c3ccc5ccccc5c3)C(C)(C)O4)CC2)cc1 (stereo not given) |
| 76 to 77 | OCCCc1ccccc1OCc1coc(/C=C/c2ccccc2)n1 |
| 249 to 251 | COC(=O)Nc1cn2c(S(=O)c3ccccc3)cccc2n1 (stereo not given) |
| 248 to 250 | CC(C)c1ccc(-c2cn(-c3cccc(C(=O)O)c3)cn2)cc1 |
| 104 to 106 | Cc1ccc(S(=O)(=O)OC2CCc3c(c4ccccc4n3C)C2)cc1 (stereo not given) |
| 54 to 56 | CSc1c(C)c(-c2cc(OS(=O)(=O)C(F)(F)F)c(Cl)cc2F)nn1C |
| 172 to 174 | COCOc1cc(F)ccc1-c1cc(-c2cccc(NC(=O)CCN(C)C(=O)OC(C)(C)C)c2)c(C#N)c(NC(=O)c2ccco2)n1 |
| 226 | Cc1cc(-c2cnn3c(C(F)(F)F)cc(-c4ccc(Br)cc4)nc23)ccn1 |
| 100 to 102 | O=S(=O)(c1ccccc1)C(F)(F)C(O)c1ccc(Cl)cc1 (stereo not given) |
| 83 to 84 | CCCN(CCC)C(=O)CNc1nc(-c2ccccc2)nc(CC)c1C |
| 293 | CCOC(=O)c1cn(C)c2cnc3c(F)c(Cl)c(F)cc3c2c1=O |
| 124 to 128 | Nc1ncccc1OCc1c(F)cccc1F |
| 44 to 47 | CCCCNc1nc(N)nc2c1ncn2C1CC(N=[N+]=[N-])C(CO)O1 (stereo not given) |
| 153 to 157 | O=C1CCCc2nc3ccccc3c(NCc3ccc(OCc4ccccc4)cc3)c21 |
| 127 to 129 | CC(C)(C)C(O)(COc1ccccc1)c1cncnc1 (stereo not given) |
| 80 to 86 | O=C(O)Cc1ccc(OCCNC(=O)C2Cc3ccccc3N2S(=O)(=O)c2ccc(-c3cc(Cl)ccc3Cl)cc2)cc1 (stereo not given) |
| 144 | COc1ccc(-c2cc(=O)n(Cc3c(Cl)cccc3Cl)nc2-c2ccc(OC)cc2)cc1 |
| 158 to 159 | Cc1c(Cc2cccc(C(F)(F)F)c2)oc2c(-c3cccc(C(=O)NCCO)c3)cccc12 |

| SMILES | melting point [°C] |
| --- | --- |
| Cn1cc(Br)nc(Nc2ccc3c(c2)CCNC3)c1=O | 170 to 171 |
| CCCCNC(=O)CNC(=O)CN1CCCC1=O | 105 to 106 |
| C=CCN1CCC23CC(=O)CCC2C1Cc1cccc(OC)c13 (stereo not given) | 84 to 86 |
| O=[N+]([O-])N=C1NCCN1Cc1ccc(F)nc1 | 121 to 124 |
| O=C1C=C(NC(=O)C(=O)c2cn(Cc3cccc(Cl)c3F)c3ccccc23)CO1 | 248 to 250 |
| CCNC(=O)ON=C1CCOc2ccc(OC)cc21 | 97 to 98 |

Reference: a melting point compilation (Tetko et al.; mined from patent text by program, amines drawn as free bases though some values may be those of a salt)
